Eight compounds from patent US4555572A, “Pyrazolo[3,4,5-kl]acridine compositions and methods for their production and use” (Warner-Lambert Company, priority 1984, dated 1985) can be followed below.

Assay [1] deals with lymphocytic leukemia P388. Briefly: in vivo lymphocytic leukemia P388 test. More on the design: species or system CD2 F1 mice. The note with it: Mus musculus, P388, ip, 120 h. Summed up:
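CD2 F1 mice (6–7 per group) inoculated i.p. with P388 ascitic cells; compound dosed i.p. once daily for 5 consecutive days after inoculation. Survival followed 30 days; efficacy as treated/control survival time ×100 (≥125 criterion); "toxic" if all animals died within 4 days of first dose.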

In the next assay the test system is L1210 cells. Briefly: PDC test, L1210 cell growth. It is filed as cell-based, murine. The settings on record: Mus musculus, read-out: PDC ID50. On the procedure:
(c) Another test protocol is the PDC test. L1210 cells, a murine leukemia cell line, were grown in RPMI 1640 supplemented with 10% fetal bovine serum and genamicin (50 μg/ml). Drug dilutions were prepared in the appropriate solvent and 20 μl of each dilution were added to 24-well Linbro tissue culture plates followed by the addition of 2.0 ml of cell suspension containing 3×10^4 cells per ml. Solvent and medium controls were included in each test. After incubation at 37° C. for three days in 5% CO2 in air, the contents of each well were removed and the cells counted in a ZBI Coulter counter. Per cent growth was calculated relative to the controls and the levels of drug activity were expressed as ID50 in terms of molarity (M).

A further assay deals with HCT-8 cells. Briefly: in vitro proliferating human colon adenocarcinoma (HCA) cell screen, HCT-8. The class given is cell-based. On the procedure: (a) One test protocol is the in vitro proliferating human colon adenocarcinoma (HCA) cell screen. In this test, HCT-8 cells (HCA cell line received from Yale University) are trypsinized using trypsin-EDTA. A single cell suspension is achieved by passing the cells through a 26 gauge needle with a 20-cc syringe. A cell suspension is prepared using RPMI 1640+10% FCS+50 μg/ml gentamicin sulfate with a cell concentration is approximately 30,000 cells/ml. The cell suspension is dispensed in Linbro 24-well plates; 1 ml/well. The plates are incubated for approximately 48 hours at 37° C. in a 5% CO2 atmosphere. At this time test compounds are added in the appropriate concentration. Five μl of the 200 μg/ml stock solution is added to each well in a primary test. […] of the appropriate dilution is added to each well for a titration test. The plates are reincubated an additional 60 to 65 hours at 37° C. in a 5% CO 2 atmosphere. The cells are lysed using a mix of cationic surfactant, glacial acetic acid, and sodium chloride. Two ml of the lysed cell suspension from each well is added to 8 ml of diluent. The number of nuclei is determined using a Coulter counter (ZBI model), and a percent growth for each drug concentration is calculated. From this, and ID50 (molar concentration of compound that results in 50% inhibition of growth) is determined.

A further assay deals with Branhamella catarrhalis. Briefly: in vitro antibacterial (ABMF) microdilution susceptibility test. The class given is cell-based. The settings on record: Moraxella catarrhalis, read-out: ABMF Test M.I.C. B. cata. Summed up: (§1)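 Standard microdilution susceptibility in Mueller-Hinton broth: inoculated wells contain test compound at 1000, 333, 111, 37, 12, 4, 1.4 and 0.46 μg/mL.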
On the technique in general: Broth dilution looks for growth in wells or tubes with falling amounts of substance.

In a further assay the test system is Escherichia coli. The description is as above. The class given is cell-based. The settings on record: read-out: ABMF Test M.I.C. E. coli. Summed up: as §1
Another assay concerns Alcaligenes viscolactis. The assay is described as above. It is filed as cell-based. The settings on record: read-out: ABMF Test M.I.C. A. visc. Summed up: as §1
In another assay the test system is Bacillus cereus. Described as above. It is filed as cell-based. The note with it: read-out: ABMF Test M.I.C. B. cere. In outline: as §1
The subject of the next assay is Streptococcus pneumoniae. Described as above. The class given is cell-based. The note with it: read-out: ABMF Test M.I.C. S. pneu. Summed up:
as §1

[2] abbreviates: 6.25 mg/kg, intraperitoneally once daily for five days, read-out: P388 in vivo T/C × 100.
Where [3] appears, read: 12.5 mg/kg, intraperitoneally once daily for five days, read-out: P388 in vivo T/C × 100.
Setting [4] is: 25 mg/kg, intraperitoneally once daily for five days, read-out: P388 in vivo T/C × 100.
Where [5] appears, read: 50 mg/kg, intraperitoneally once daily for five days, read-out: P388 in vivo T/C × 100.
Setting [6] is: HCT-8 cells, 60 to 65 hours, ED50, read-out: HCA ED50 Avg.
Where [7] appears, read: Mueller-Hinton broth, 37° C., 16-24 hours.
Setting [8] is: read-out: P388 in vivo T/C × 100, 6.25 mg/kg, intraperitoneally once daily for five days.
[9] abbreviates: read-out: P388 in vivo T/C × 100, 12.5 mg/kg, intraperitoneally once daily for five days.
Where [10] appears, read: read-out: P388 in vivo T/C × 100, 25 mg/kg, intraperitoneally once daily for five days.
Where [11] appears, read: intraperitoneally once daily for five days, read-out: P388 in vivo T/C × 100.

pIC50: −log10 of the molar value. Where a name gives a salt, the structure may show the parent alone. Read-outs that look alike come from different tables or passages of the source.

As for `CCOc1ccc2c(c1)-c1nn(CCNCCO)c3ccc([N+](=O)[O-])c(c13)N2` [Example 40, 2-[[2-(9-Ethoxy-5-nitropyrazolo[3,4,5-kl]acridin-2(6H)-yl)ethyl]amino]ethanol, monohydrochloride, hydrate (4:1)], the response vs control in vivo at 6.25 mg/kg in assay [1] (setting [2]) was determined as 134%. In addition, the response vs control in vivo at 12.5 mg/kg in assay [1] (setting [3]) is 156%. For the same compound, the response vs control in vivo at 25 mg/kg in assay [1] (setting [4]) worked out at 169%. In addition, the response vs control in vivo at 50 mg/kg in assay [1] (setting [5]) is 195%. Besides, the pIC50 with L1210 cells (72 h, L1210 cells, three days) is 6.49; in the assay with HCT-8 cells (setting [6]) it was 7.09. Also, the MIC in the assay with Branhamella catarrhalis (setting [7]) is 4.1 µg/mL; in the assay with Escherichia coli (setting [7]) it was 4.1 µg/mL; with Alcaligenes viscolactis (setting [7]), below 0.46 µg/mL; in the assay on Bacillus cereus (setting [7]) it was below 0.46 µg/mL; in the assay on Streptococcus pneumoniae (setting [7]) it was below 0.46 µg/mL.
In the case of `CCN(CC)CCn1nc2c3c(c([N+](=O)[O-])cc([N+](=O)[O-])c31)Nc1ccc(OC)cc1-2` [Example 50, N,N-Diethyl-9-methoxy-3,5-dinitropyrazolo[3,4,5-kl]acridine-2(6H)-ethanamine, methanesulfonate (1:1), hydrate], in assay [1] (setting [8]), the response vs control in vivo at 6.25 mg/kg amounted to 160%. Also, in assay [1] (setting [9]), the response vs control in vivo at 12.5 mg/kg was 166%. Further, the response vs control in vivo at 25 mg/kg in assay [1] (setting [10]) was 169%. In addition, the response vs control in vivo at 50 mg/kg in assay [1] (read-out: P388 in vivo T/C × 100, 50 mg/kg, intraperitoneally once daily for five days) amounted to 226%. Moreover, the pIC50 was 6.40 in the assay on L1210 cells (L1210, 72 h) and 7.18 in the assay with HCT-8 cells (HCT-8, read-out: HCA in vitro ID50 avg.). Moreover, the MIC was below 0.46 µg/mL in the assay on Branhamella catarrhalis; below 0.46 µg/mL in the assay on Escherichia coli; below 0.46 µg/mL with Alcaligenes viscolactis; 4.1 µg/mL with Bacillus cereus; below 0.46 µg/mL in the assay with Streptococcus pneumoniae.
Turning to `CCN(CC)CCn1nc2c3c(c([N+](=O)[O-])ccc31)Nc1ccc(N(C)C)cc1-2.CS(=O)(=O)O.CS(=O)(=O)O` [Example 33, 9-(Dimethylamino)-N,N-diethyl-5-nitropyrazolo[3,4,5-kl]acridine-2(6H)-ethanamine, methanesulfonate (1:2)], the response vs control in vivo at 12.5 mg/kg in assay [1] (setting [3]) came out at 127%. Further, the response vs control in vivo at 25 mg/kg in assay [1] (setting [4]) was found to be 158%. For the same compound, the pIC50 was 6.05 with L1210 cells (72 h, L1210 cells, three days) and 6.49 in the assay with HCT-8 cells (setting [6]). For the same compound, the MIC in the assay on Branhamella catarrhalis (setting [7]) was determined as 12.3 µg/mL; in the assay with Escherichia coli (setting [7]), 37 µg/mL; with Alcaligenes viscolactis (setting [7]), 1.4 µg/mL; with Bacillus cereus (setting [7]), 37 µg/mL; in the assay with Streptococcus pneumoniae (setting [7]) it was 1.4 µg/mL.
Consider `COc1ccc2c(c1)-c1nn(CCCN(C)C)c3ccc([N+](=O)[O-])c(c13)N2` [Example 45, 9-Methoxy-N,N-dimethyl-5-nitropyrazolo[3,4,5-kl]acridine-2(6H)-propanamine,methanesulfonate], for which, in assay [1] (setting [8]), the response vs control in vivo at 6.25 mg/kg is 189%. In addition, the response vs control in vivo at 12.5 mg/kg in assay [1] (setting [9]) stood at 227%. In addition, the response vs control in vivo at 25 mg/kg in assay [1] (setting [10]) turned out to be 261%. Further, the pIC50 with L1210 cells (L1210, 72 h) is 6.38; in the assay with HCT-8 cells (HCT-8, read-out: HCA ED50 Avg.) it was 6.85. In addition, the MIC was 1.4 µg/mL in the assay with Branhamella catarrhalis; 12.3 µg/mL in the assay on Escherichia coli; below 0.46 µg/mL in the assay on Alcaligenes viscolactis; 1.4 µg/mL with Bacillus cereus; below 0.46 µg/mL in the assay on Streptococcus pneumoniae.
As for `CCNCCn1nc2c3c(c([N+](=O)[O-])ccc31)Nc1ccc(OC)cc1-2` [Example 36, N-Ethyl-9-methoxy-5-nitropyrazolo[3,4,5-kl]acridine-2(6H)-ethanamine, 1.25 methanesulfonate salt (4:5), hemihydrate], in assay [1] (setting [3]), the response vs control in vivo at 12.5 mg/kg is 169%. In assay [1] (setting [4]), the response vs control in vivo at 25 mg/kg worked out at 160%. For the same compound, the response vs control in vivo at 50 mg/kg in assay [1] (setting [5]) is 223%. Further, the pIC50 in the assay on L1210 cells (72 h, L1210 cells, three days) was 6.68; in the assay with HCT-8 cells (setting [6]) it was 6.92. Moreover, the MIC was below 0.46 µg/mL in the assay with Branhamella catarrhalis (setting [7]); 1.4 µg/mL in the assay on Escherichia coli (setting [7]); below 0.46 µg/mL in the assay on Alcaligenes viscolactis (setting [7]); 1.4 µg/mL in the assay on Bacillus cereus (setting [7]); below 0.46 µg/mL in the assay with Streptococcus pneumoniae (setting [7]).
Turning to `CCOC(=O)Oc1ccc2c(c1)-c1nn(CCN(CC)CC)c3ccc([N+](=O)[O-])c(c13)N2` [Example 32, [2-[2-(Diethylamino)ethyl]-2,6-dihydro-5-nitropyrazolo [3,4,5-kl]acridin-9-yl]carbonic acid ethyl ester, methanesulfonate (salt) (1:1)], the response vs control in vivo at 3.12 mg/kg in assay [1] (setting [11]) turned out to be 208%. In addition, the response vs control in vivo at 6.25 mg/kg in assay [1] (setting [2]) was found to be 168%. In addition, the pIC50 with L1210 cells (72 h, L1210 cells, three days) is 8.49. The MIC in the assay on Branhamella catarrhalis (setting [7]) is 1.4 µg/mL; with Escherichia coli (setting [7]), 4.1 µg/mL; with Alcaligenes viscolactis (setting [7]), below 0.46 µg/mL; with Bacillus cereus (setting [7]) it was below 0.46 µg/mL; in the assay on Streptococcus pneumoniae (setting [7]) it was below 0.46 µg/mL.
Regarding `CCOc1ccc2c(c1)-c1nn(CCN(C)C)c3ccc([N+](=O)[O-])c(c13)N2` [Example 37, 9-Ethoxy-N,N-dimethyl-5-nitropyrazolo[3,4,5-kl]acridine-2(6H)ethanamine, methanesulfonate (4:5)], the response vs control in vivo at 3.12 mg/kg in assay [1] (setting [11]) was 150%. Besides, in assay [1] (setting [2]), the response vs control in vivo at 6.25 mg/kg was 191%. The response vs control in vivo at 12.5 mg/kg in assay [1] (setting [3]) stood at 234%. Besides, the pIC50 with L1210 cells (72 h, L1210 cells, three days) is 6.57; in the assay on HCT-8 cells (setting [6]), 7.60. For the same compound, the MIC in the assay with Branhamella catarrhalis (setting [7]) was 1.4 µg/mL; in the assay on Escherichia coli (setting [7]), below 0.46 µg/mL; in the assay on Alcaligenes viscolactis (setting [7]), below 0.46 µg/mL; in the assay with Bacillus cereus (setting [7]), 4.1 µg/mL; in the assay with Streptococcus pneumoniae (setting [7]), below 0.46 µg/mL.
Regarding `CN(C)CCCn1nc2c3c(c([N+](=O)[O-])ccc31)Nc1ccc(OC(=O)C(C)(C)C)cc1-2` [Example 48, 2-[3-(Dimethylamino)propyl]-5-nitropyrazolo[3,4,5-kl]acridin-9-ol, 2,2-dimethylpropanoate (ester), methanesulfonate (salt) (1:1)], in assay [1] (0.78 mg/kg, intraperitoneally once daily for five days, read-out: P388 in vivo T/C × 100), the response vs control in vivo at 0.78 mg/kg was 175%. The response vs control in vivo at 1.56 mg/kg in assay [1] (1.56 mg/kg, intraperitoneally once daily for five days, read-out: P388 in vivo T/C × 100) amounted to 263%. The pIC50 in the assay on L1210 cells (72 h, L1210 cells, three days) was 8.01. The MIC in the assay with Branhamella catarrhalis (setting [7]) was determined as 1.4 µg/mL; in the assay with Escherichia coli (setting [7]), 3.7 µg/mL; in the assay on Alcaligenes viscolactis (setting [7]), 0.46 µg/mL; with Bacillus cereus (setting [7]), 333 µg/mL; in the assay with Streptococcus pneumoniae (setting [7]) it was 4.1 µg/mL.
